In patent US9937198B2, “Multi-functional composition and preparation method and application thereof” (Suzhou Sciscape Bio-Pharmaceutical Technology Co., Ltd., priority 2013, dated 2018):
Where “and” joins values, the source holds several entries; their conditions need not be identical. Identical values can stand only once.

Legend:
Type in all cases: in vivo
[1] = tested on: patients with type-II diabetes; test: Short-term experiment for treatment in human diabetics; details: for effect on blood glucose level in patients with type-II diabetes, short-term / Blood glucose level after administration: 200 mL oral; for Blood glucose level after administration / Blood glucose level before administration: individual type-II diabetes patients; for Blood glucose level before administration: fasting baseline
Description: (§1) Six patients with type-II diabetes were fasted overnight and then measured for fasting blood glucose level. Then they were orally administered with 200 mL of the solution of Composition 1, or 200 mL of solution of trehalose (0.15 g/mL), or 200 mL of the solution of validamycin (0.3 mg/mL), or 200 mL of distilled water, as stated in Table 3.3. The blood glucose level in every patient was tested before administration and 30 min, 60 min and 120 min post administration.

[2] = tested on: normal mice; test: Sleep in normal mice with subdissociative sodium pentobarbital; details: 13.3 mL/kg intragastric; sodium pentobarbital 15 mg/kg i.p. 20 to 30 min later
Description: Male ICR mice, 8 weeks old and 20±2 g in body weight, were purchased from Beijing HFK Bioscience Co., Ltd.
The solutions of Compositions 1 to 7 prepared in this example were used.
After the mice were fed normally for 3 days, they were given no food but water for 18 to 24 h. By body weight, the mice were randomly divided into 11 groups, i.e., a blank control group, administration groups 1 to 7 and negative control groups 1 to 3. The mice in administration groups 1 to 7 were intragastrically administered with the solutions of Compositions 1 to 7 at a dose of 13.3 mL/kg body weight while the mice in the blank control group were intragastrically given sterile water for medical use at a dose of 13.3 mL/kg body weight. The mice in negative control groups 1 to 3 were intragastrically given the solution of trehalose (0.15 g/mL), the solution of validamycin (0.3 mg/mL) and the solution of algal polysaccharides (0.15 g/mL) at a dose of 13.3 mL/kg body weight respectively. Twenty to 30 min post administration, all mice were intraperitoneally injected with sodium pentobarbital at a subdissociative dose (15 mg/kg). The time when the righting reflex disappeared and sleep duration of the mice were recorded.

[3] = tested on: patients with type-II diabetes; test: Long-term experiment for treatment in human diabetics; details: for Blood glucose level after administration: 200 mL oral
Description: as §1, with “3.4.” for “3.3.”, “one day, one week, two weeks” for “30 min, 60 min”, “one month” for “120 min”

OC[C@H]1O[C@H](O[C@H]2O[C@H](CO)[C@@H](O)[C@H](O)[C@H]2O)[C@H](O)[C@@H](O)[C@@H]1O [trehalose]
effect on blood glucose level in patients with type-II diabetes, short-term [1]: significantly raised the blood glucose level | Blood glucose level after administration ([1]; 30 min): 25.5 mmol/L | Blood glucose level after administration ([1]; 60 min): 20.1 mmol/L | Blood glucose level after administration ([1]; 120 min): 17.3 mmol/L | Blood glucose level before administration [1]: 15.3 mmol/L | Sleep duration [2]: 30.54 ± 2.17 min | Time when righting reflex disappeared [2]: 2.49 ± 0.14 min

OCC1=C[C@H](N[C@H]2C[C@H](CO)[C@@H](O[C@@H]3O[C@H](CO)[C@@H](O)[C@H](O)[C@H]3O)[C@H](O)[C@H]2O)[C@H](O)[C@@H](O)[C@@H]1O [validamycin]
effect on blood glucose level in patients with type-II diabetes, short-term [1]: had no influence on blood glucose level | Blood glucose level after administration ([1]; 30 min, listed as Solution of validamycin): 9.5 mmol/L and 15.7 mmol/L | Blood glucose level after administration ([1]; 60 min, listed as Solution of validamycin): 9.6 mmol/L and 16.1 mmol/L | Blood glucose level after administration ([1]; 120 min, listed as Solution of validamycin): 9.1 mmol/L and 14.8 mmol/L | Blood glucose level before administration ([1]; listed as Solution of validamycin): 9.3 mmol/L and 15.5 mmol/L | Sleep duration [2]: 29.87 ± 1.58 min | Time when righting reflex disappeared [2]: 3.11 ± 0.21 min | Blood glucose level after administration ([3]; 1 month, individual type-II diabetics): 8.9 mmol/L | Blood glucose level after administration ([3]; 1 week, individual type-II diabetics): 9.0 mmol/L | Blood glucose level after administration ([3]; 2 weeks, individual type-II diabetics): 8.7 mmol/L | Blood glucose level after administration ([3]; 1 day, individual type-II diabetics): 8.7 mmol/L | Blood glucose level before administration ([3]; fasting baseline, individual type-II diabetics, long-term): 8.8 mmol/L | effect on blood glucose level in patients with type-II diabetes, long-term ([3]; up to one month): had no influence on blood glucose level
